The nature of data set [1]: logP by HPLC on reversed phase columns (EEC directive 79/831 Annex V.A8). Format: physicochemical. As to conditions: for chromatographic logP: reversed phase HPLC columns. The protocol:
Measurement of logP values was performed according EEC directive 79/831 Annex V.A8 by HPLC (High Performance Liquid Chromatography) on reversed phase columns with the following methods:
^[a] measurement of LC-MS was done at pH 2.7 with 0.1% formic acid in water and with acetonitrile (contains 0.1% formic acid) as eluent with a linear gradient from 10% acetonitrile to 95% acetonitrile. […]

A further data set concerns Phytophthora infestans. In kind it is in vivo. As to conditions: tomato plants, preventive spray, 500 ppm of active ingredient, evaluated 7 days after inoculation; 0% = untreated control, 100% = no disease.
For the next data set, the system named is Plasmopara viticola. The experiment in a line: Plasmopara test (grapevines)/preventive. Format: in vivo. As to conditions: preventive spray, 100 ppm of active ingredient, evaluated 6 days after inoculation, 0% = untreated control, 100% = no disease. The protocol:
Plasmopara Test (Grapevines)/Preventive • Solvent: 24.5 parts by weight of acetone • 24.5 parts by weight of dimethylacetamide • Emulsifier: 1 part by weight of alkylaryl polyglycol ether
To produce a suitable preparation of active compound, 1 part by weight of active compound is mixed with the stated amounts of solvent and emulsifier, and the concentrate is diluted with water to the desired concentration. To test for preventive activity, young plants are sprayed with the preparation of active compound at the stated rate of application. After the spray coating has dried on, the plants are inoculated with an aqueous spore suspension of Plasmopara viticola and then remain for 1 day in an incubation cabinet at approximately 20° C. and a relative atmospheric humidity of 100%. The plant is subsequently placed for 4 days in a greenhouse at approximately 21° C. and a relative atmospheric humidity of approximately 90%. The plants are then misted and placed for 1 day in an incubation cabinet. The test is evaluated 6 days after the inoculation. 0% means an efficacy which corresponds to that of the untreated control, while an efficacy of 100% means that no disease is observed.

Where [2] appears, read: method [a]: LC-MS at pH 2.7, 0.1% formic acid in water / acetonitrile, gradient 10% to 95% acetonitrile.
The mark [3] stands for this setting: pH 2.7, value in preparation example text, method not given.
Where [4] appears, read: pH 2.7, method [a]: LC-MS at pH 2.7, 0.1% formic acid in water / acetonitrile, gradient 10% to 95% acetonitrile.

In general, LogP refers to a log measure of how a compound divides between an organic and an aqueous phase. Consider `CCC(=O)C(C#N)=C(NC(C)C1CC1)c1ccccc1Br` (stereo not shown) [Example 28], for which the LogP in data set [1] (setting [2]) is 3.60^[a].

With `CC(C)CC(=O)C(C#N)=C(N[C@@H](C)C(C)C)c1ccccc1Cl` [Example 33], in data set [1] (setting [2]), the LogP was 4.73^[a].

On to `CC(C)C(C)NC(=C(C#N)C(=O)c1ccco1)c1ccccc1Cl` (stereo not shown) [Example 6], for which, in data set [1] (setting [2]), the LogP is 3.87^[a].

As for `CC(C)C(C)NC(=C(C#N)C(=O)CC1CC1)c1ccccc1Cl` (stereo not shown) [Example 2], the LogP in data set [1] (setting [2]) was 4.27^[a].

Consider `CC(C)C(C)NC(=C(C#N)C(=O)C1CCC1)c1ccccc1Br` (stereo not shown) [Example 22], for which, in data set [1] (setting [2]), the LogP is 4.64^[a].

`CC(C)C(C)NC(=C(C#N)C(=O)CC1CC1)c1ccccc1Br` (stereo not shown) [Example 16] registered an Efficacy in % with Phytophthora infestans of 95%. Also, the LogP in data set [1] (setting [2]) is 4.34^[a].

For orientation: chromatographic logP means lipophilicity estimated from chromatographic retention. In the case of `CC(C)C(C)NC(=CC#N)c1ccccc1Cl` (stereo not shown) [3-(2-chlorophenyl)-3-[(3-methylbutan-2-yl)amino]acrylonitrile], in data set [1] (setting [3]), the chromatographic logP was found to be 3.27.

On to `COCCC(=O)C(C#N)=C(NC(C)C(C)C)c1ccccc1Cl` (stereo not shown) [Example 27], for which, in data set [1] (setting [2]), the log partition coefficient (LogP) was 3.55^[a].

Regarding `CC(NC(=C(C#N)C(=O)C1CCC1)c1ccccc1Br)C1CC1` (stereo not shown) [Example 11], the LogP in data set [1] (setting [2]) is 4.20^[a].

Take `CC(C)C(C)NC(=C(C#N)C(=O)C1CC1)c1ccccc1Cl` (stereo not shown) [Example 31]: the LogP in data set [1] (setting [2]) was 4.18^[a].

For the molecule `COCC(=O)C(C#N)=C(NC(C)C1CC1)c1ccccc1Br` (stereo not shown) [Example 5], the Efficacy in % in the data set on Phytophthora infestans came to 93%. The LogP in data set [1] (setting [2]) was 3.00^[a].

On to `CC(C)C(C)NC(=C(C#N)C(=O)C1CCCC1)c1ccccc1Br` (stereo not shown) [Example 4], for which the LogP in data set [1] (setting [2]) is 5.05^[a].

As for `CCCC(=O)C(C#N)=C(NC(C)C(C)C)c1ccccc1Br` (stereo not shown) [Example 17], the values for the Efficacy in % with Phytophthora infestans and in the data set on Plasmopara viticola were 100% and 93%, respectively. Also, the LogP in data set [1] (setting [2]) is 4.40^[a].

Take `N#CC=C(Cl)c1ccccc1Cl` [3-chloro-3-(2-chlorophenyl)acrylonitrile]: the chromatographic logP in data set [1] (setting [3]) was 3.02. This molecule also gave a LogP in data set [1] (value in preparation example text, method not given) of 3.23.

As to `CC(C)C(C)NC(=C(C#N)C(=O)C1CCOC1)c1ccccc1Br` (mixture of isomers) [Example 1], the LogP in data set [1] (setting [2]) was 3.60^[a].

On to `CC(NC(=C(C#N)C(=O)C1CCOC1)c1ccccc1Br)C1CC1` (mixture of isomers) [Example 30], for which, in data set [1] (setting [2]), the LogP was 3.25^[a].

As to `CCCC(=NOC)C(C#N)=C(NC(C)C(C)C)c1ccccc1Cl` (stereo not shown) [Example 35, 2-{(2-chlorophenyl)[(3-methylbutan-2-yl)amino]methylene}-3-(methoxyimino)hexanenitrile], the chromatographic logP in data set [1] (setting [4]) and in data set [1] (setting [3]) was 5.34 throughout.

In the data set with Phytophthora infestans, `CCCC(=O)C(C#N)=C(N[C@@H](C)C1CC1)c1ccccc1Br` [Example 34] showed an Efficacy in % of 93%. Further, the LogP in data set [1] (setting [2]) is 4.10^[a].

Regarding `COCC(=O)C(C#N)=C(NC(C)C(C)C)c1ccccc1Cl` (stereo not shown) [Example 23], the LogP in data set [1] (setting [2]) was 3.21^[a].

Turning to `CCCC(=O)C(C#N)=C(NC(C)C(C)C)c1ccccc1Cl` (stereo not shown) [Example 13, 2-{(2-chlorophenyl)[(3-methylbutan-2-yl)amino]methylene}-3-oxohexanenitrile], the chromatographic logP in data set [1] (setting [4]) and in data set [1] (setting [3]) was 4.44 in each case.

Regarding `COCCC(=O)C(C#N)=C(NC(C)C1CC1)c1ccccc1Br` (stereo not shown) [Example 3], in data set [1] (setting [2]), the LogP is 3.20^[a].

For the molecule `CCC(=O)C(C#N)=C(NC(C)C(C)C)c1ccccc1Br` (stereo not shown) [Example 9], the LogP in data set [1] (setting [2]) is 4.04^[a].

Consider `CCCCC(=O)C(C#N)=C(NC(C)C(C)C)c1ccccc1Cl` (stereo not shown) [Example 14], for which the LogP in data set [1] (setting [2]) was 4.81^[a].

For `CC(NC(=C(C#N)C(=O)CCl)c1ccccc1Br)C1CC1` (stereo not shown) [Example 7], in data set [1] (setting [2]), the LogP is 3.50^[a].

On to `CCCCC(=O)C(C#N)=C(NC(C)C(C)C)c1ccccc1Br` (stereo not shown) [Example 12], for which, in data set [1] (setting [2]), the LogP was 4.85^[a].

`CC(C)C(C)NC(=C(C#N)C(=O)CCl)c1ccccc1Cl` (stereo not shown) [Example 18]: in data set [1] (setting [2]), the LogP was 3.78^[a].

Consider `CC(NC(=C(C#N)C(=O)c1ccco1)c1ccccc1Br)C1CC1` (stereo not shown) [Example 10], for which the LogP in data set [1] (setting [2]) was 3.50^[a].

Regarding `CCCC(=NC#N)C(C#N)=C(N[C@@H](C)C(C)C)c1ccccc1Cl` [Example 36], the LogP in data set [1] (setting [2]) was 3.85^[a].

In the case of `CC(NC(=C(C#N)C(=O)C1CC1)c1ccccc1Br)C1CC1` (stereo not shown) [Example 20], in data set [1] (setting [2]), the LogP is 3.90^[a].

As to `CC(C)C(C)NC(=C(C#N)C(=O)C1CCCCO1)c1ccccc1Br` (mixture of isomers) [Example 26], the LogP in data set [1] (setting [2]) is 3.80^[a].

For the molecule `CNCC(=O)C(C#N)=C(NC(C)C(C)C)c1ccccc1Cl` (stereo not shown) [Example 21], the LogP in data set [1] (setting [2]) was 1.89^[a].

With `COCC(=O)C(C#N)=C(NC(C)C(C)C)c1ccccc1Br` (stereo not shown) [Example 19], the Efficacy in % in the data set on Phytophthora infestans worked out at 95%; with Plasmopara viticola, 74%. Moreover, the LogP in data set [1] (setting [2]) is 3.27^[a].

For the molecule `C[C@H](NC(=C(C#N)C(=O)C1CCCCO1)c1ccccc1Br)C1CC1` (stereo partly shown) [Example 32], the LogP in data set [1] (setting [2]) was 3.50^[a].

For the molecule `CC(C)C(C)NC(=C(C#N)C(=O)C1CC1)c1ccccc1Br` (stereo not shown) [Example 8], the lipophilicity (LogP) in data set [1] (setting [2]) is 4.21^[a].

With `CC(NC(=C(C#N)C(=O)C1CCCC1)c1ccccc1Br)C1CC1` (stereo not shown) [Example 29], the LogP in data set [1] (setting [2]) was 4.60^[a].

For `CC(NC(=C(C#N)C(=O)Cc1ccccc1)c1ccccc1Br)C1CC1` (stereo not shown) [Example 25], the LogP in data set [1] (setting [2]) is 4.20^[a].

Turning to `CCCCC(=O)C(C#N)=C(NC(C)C1CC1)c1ccccc1Br` (stereo not shown) [Example 15], the LogP in data set [1] (setting [2]) is 4.40^[a].

Regarding `CC(NC(=C(C#N)C(=O)CC1CC1)c1ccccc1Br)C1CC1` (stereo not shown) [Example 24], the Efficacy in % in the data set on Phytophthora infestans came out at 85%. The LogP in data set [1] (setting [2]) was 4.06^[a].

The values above are taken from patent US9351489B2 (priority 2010, dated 2016).
